Measured values reported in patent US7632972B2, “Compounds and methods for treatment of cancer and modulation of programmed cell death for melanoma and other cancer cells” (The Board of Trustees of the University of Illionis, priority 2003, dated 2009).

Key:
[1] = tested on: HL-60(TB)
[2] = tested on: ACHN; test: NCI 60 cell line screen (SRB), Renal Cancer; type: cell-based, human
Text: (§1) The operation of this screen utilizes 60 different human tumor cell lines, representing leukemia, melanoma and cancers of the lung, colon, brain, ovary, breast, prostate, and kidney. The aim is to prioritize for further evaluation, synthetic compounds or natural product samples showing selective growth inhibition or cell killing of particular tumor cell lines. This screen is unique in that the complexity of a 60 cell line dose response produced by a given compound results in a biological response pattern which can be utilized in pattern recognition algorithms. Using these algorithms, it is possible to assign a putative mechanism of action to a test compound, or to determine that the response pattern is unique and not similar to that of any of the standard prototype compounds included in the NCl database (see DTP Overview tab). In addition, following characterization of various cellular molecular targets in the 60 cell lines, it may be possible to select compounds most likely to interact with a specific molecular target.
(§2) The human tumor cell lines of the cancer screening panel are grown in RPMI 1640 medium containing 5% fetal bovine serum and 2 mM L-glutamine. For a typical screening experiment, cells are inoculated into 96 well microtiter plates in 100 μL at plating densities ranging from 5,000 to 40,000 cells/well depending on the doubling time of individual cell lines. After cell inoculation, the microtiter plates are incubated at 37° C., 5% CO2, 95% air and 100% relative humidity for 24 h prior to addition of experimental drugs.
(§3) After 24 h, two plates of each cell line are fixed in situ with TCA, to represent a measurement of the cell population for each cell line at the time of drug addition (Tz). Experimental drugs are solubilized in dimethyl sulfoxide at 400-fold the desired final maximum test concentration and stored frozen prior to use. At the time of drug addition, an aliquot of frozen concentrate is thawed and diluted to twice the desired final maximum test concentration with complete medium containing 50 μg/ml gentamicin. Additional four, 10-fold or ½ log serial dilutions are made to provide a total of five drug concentrations plus control. Aliquots of 100 μl of these different drug dilutions are added to the appropriate microtiter wells already containing 100 μl of medium, resulting in the required final drug concentrations.
(§4) Following drug addition, the plates are incubated for an additional 48 h at 37° C., 5% CO2, 95% air, and 100% relative humidity. For adherent cells, the assay is terminated by the addition of cold TCA. Cells are fixed in situ by the gentle addition of 50 μl of cold 50% (w/v) TCA (final concentration, 10% TCA) and incubated for 60 minutes at 4° C. The supernatant is discarded, and the plates are washed five times with tap water and air dried. Sulforhodamine B (SRB) solution (100 μl) at 0.4% (w/v) in 1% acetic acid is added to each well, and plates are incubated for 10 minutes at room temperature. After staining, unbound dye is removed by washing five times with 1% acetic acid and the plates are air dried. Bound stain is subsequently solubilized with 10 mM trizma base, and the absorbance is read on an automated plate reader at a wavelength of 515 nm. For suspension cells, the methodology is the same except that the assay is terminated by fixing settled cells at the bottom of the wells by gently adding 50 μl of 80% TCA (final concentration, 16% TCA). Using the seven absorbance measurements [time zero, (Tz), control growth, (C), and test growth in the presence of drug at the five concentration levels (Ti)], the percentage growth is calculated at each of the drug concentrations levels. Percentage growth inhibition is calculated as: [(Ti−Tz)/(C−Tz)]×100 for concentrations for which Ti>/=Tz [(Ti−Tz)/Tz]×100 for concentrations for which Ti<Tz.
(§5) Three dose response parameters are calculated for each experimental agent. […]

[3] = tested on: SN12C; test: NCI 60 cell line screen (SRB), Renal Cancer; type: cell-based, human
Text: as §1, §2, §3, §4, §5

[4] = tested on: TK-10; test: NCI 60 cell line screen (SRB), Renal Cancer; type: cell-based, human
Text: as §1, §2, §3, §4, §5

[5] = tested on: CAKI-1; test: NCI 60 cell line screen (SRB), Renal Cancer; type: cell-based, human
Text: as §1, §2, §3, §4, §5

[6] = read-out: LC50 (the source's name)

COc1cccc(CCNC(=O)CC(c2ccccc2)(c2ccccc2)c2ccccc2)c1 [Compound Z3]
GI50 [1]: 17.5 µM
TGI [1]: >1.00E−04
CC50 ([1]; read-out: LC50): > 100 µM
GI50 [2]: 7.84 µM
TGI [2]: 9.48E−05
Percent Growth ([2]; Log10 Concentration −4.0): −1%
Percent Growth ([2]; Log10 Concentration −5.0): 45%
Percent Growth ([2]; Log10 Concentration −6.0): 94%
Percent Growth ([2]; Log10 Concentration −7.0): 112%
Percent Growth ([2]; Log10 Concentration −8.0): 102%
CC50 [2, 6]: > 100 µM
Percent Growth ([3]; Log10 Concentration −4.0): 217%
Percent Growth ([3]; Log10 Concentration −5.0): −14%
Percent Growth ([3]; Log10 Concentration −6.0): 51%
Percent Growth ([3]; Log10 Concentration −7.0): 84%
Percent Growth ([3]; Log10 Concentration −8.0): 87%
CC50 [3, 6]: > 100 µM
GI50 ([4]; TK-10): 21.9 µM
TGI ([4]; TK-10): 8.22E−05
Percent Growth ([4]; TK-10, Log10 Concentration −4.0): −7%
Percent Growth ([4]; TK-10, Log10 Concentration −5.0): 80%
Percent Growth ([4]; TK-10, Log10 Concentration −6.0): 133%
Percent Growth ([4]; TK-10, Log10 Concentration −7.0): 128%
Percent Growth ([4]; TK-10, Log10 Concentration −8.0): 117%
CC50 ([4]; TK-10, read-out: LC50 (the source's name)): > 100 µM
GI50 ([5]; CAKI-1): 3.16 µM
TGI ([5]; CAKI-1): 5.09E−05
Percent Growth ([5]; CAKI-1, Log10 Concentration −4.0): −9%
Percent Growth ([5]; CAKI-1, Log10 Concentration −5.0): 21%
Percent Growth ([5]; CAKI-1, Log10 Concentration −6.0): 79%
Percent Growth ([5]; CAKI-1, Log10 Concentration −7.0): 103%
Percent Growth ([5]; CAKI-1, Log10 Concentration −8.0): 97%
CC50 ([5]; CAKI-1, read-out: LC50 (the source's name)): > 100 µM
